Assays:
AgrA = target: T1, AgrA (Staphylococcus aureus, UniProt P0A0I7); assay: AgrA-dependent agr::P3 lux reporter in agr-null S. aureus ([…]), positive control; format: cell-based
T1 construct: plasmid-encoded AgrA (pCM63) in S. aureus Δagr reporter strain AH3048

[1] = target: AgrA (AgrAC, C-terminal DNA binding domain) (Staphylococcus aureus, UniProt P0A0I7); assay: EMSA with purified AgrAC and FAM-labeled […] bp DNA duplex; supported by AgrA-driven agr::P3 lux reporter in agr-null S. aureus
AgrA (AgrAC, C-terminal DNA binding domain), sequence (P0A0I7 137-238): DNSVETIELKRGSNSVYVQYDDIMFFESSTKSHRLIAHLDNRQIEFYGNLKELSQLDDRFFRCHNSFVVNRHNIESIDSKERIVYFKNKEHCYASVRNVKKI

T1 sequence (P0A0I7 whole entry): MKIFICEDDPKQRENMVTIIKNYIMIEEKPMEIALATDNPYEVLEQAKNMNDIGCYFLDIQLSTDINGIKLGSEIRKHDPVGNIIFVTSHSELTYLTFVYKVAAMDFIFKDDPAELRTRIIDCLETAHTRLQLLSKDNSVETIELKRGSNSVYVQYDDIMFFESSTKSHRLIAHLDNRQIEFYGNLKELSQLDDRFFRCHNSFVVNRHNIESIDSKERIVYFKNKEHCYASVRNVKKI

O=C(O)c1cc(-c2ccc(F)cc2F)ccc1O [diflunisal]
AgrA-dependent agr::P3 lux reporter in agr-null S. aureus (1.56-100 μM), positiv (AgrA): diflunisal and 4-phenoxyphenol, compounds published by others as inhibitors of AgrAc DNA binding ability

CC(C)c1ccc(S(=O)(=O)c2n[nH]n3c2nc(=O)c2ccccc23)cc1 [savirin, 3-(4-propan-2-ylphenyl) sulfonyl-1H-triazolo [1,5-a] quinazolin-5-one]
IC50 [1]: 83 µM
